Data as given in BindingDB's records for patent US20250066370 (Deutsches Krebsforschungszentrum, 2025).

What was measured:
[1] = target: Cyclin-K/Cyclin-dependent kinase 12 (Human, UniProt Q9NYV4); test: CDK12/CycK High ATP Kinase Assay
From the text: For the assay 50 nanoL of a 100 fold concentrated solution of the test compound in DMSO was pipetted into either a black low volume 384 well microtiter plate or a black 1536 well microtiter plate (both Greiner Bio-One, Frickenhausen, Germany), 2 microL of a solution of CDK12/CycK in aqueous assay buffer [25 millimol/L HEPES pH 7.5, 20 millimol/L MgCl2, 5 millimol/L β-glycerophosphate, 2 millimol/L EGTA, 1.0 millimol/L dithiothreitol, 0.01% (v/v) Nonidet-P40 (Sigma), 0.01% (w/v) bovine serum albumin] were added and the mixture was incubated for 15 min at 22° C. to allow pre-binding of the test compounds to the enzyme before the start of the kinase reaction. Then the kinase reaction was started by the addition of 3 microL of a solution ATP (3.33 millimol/L=>final conc. in the 5 microL assay volume is 2 millimol/L) and substrate (1.67 micromol/L=>final conc. in the 5 microL assay volume is 1 micromol/L) in assay buffer and the resulting mixture was incubated for a reaction time of 60 min at 22° C. The concentration of CDK12/CycK was adjusted depending of the activity of the enzyme lot and was chosen appropriate to have the assay in the linear range, typical concentrations were about 0.75 nanomol/L. The reaction was stopped by the addition of 3 microL of a solution of TR-FRET detection reagents (125 nanomol/L streptavidine-XL665 [Cisbio Bioassays, Codolet, France] and 0.67 nanomol/L anti-Phospho-c-Myc (Ser 62) (E1J4K)-antibody from Cell Signalling [#13748] and 2 nanomol/L LANCE EU-W1024 labeled anti-rabbit IgG antibody [Perkin-Elmer, product no. 0083]) in an aqueous EDTA-solution (133 millimol/L EDTA, 0.27% (w/v) bovine serum albumin in 66.7 millimol/L HEPES pH 7.5).The resulting mixture was incubated 1 h at 22° C. to allow the formation of complex between the phosphorylated biotinylated peptide and the detection reagents. Subsequently the amount of phosphorylated substrate was evaluated by measurement of the resonance energy transfer from the Eu-chelate to the streptavidine-XL. Therefore, the fluorescence emissions at 620 nm and 665 nm after excitation at 350 nm was measured in a TR-FRET reader, e.g. a Pherastar FS (BMG Labtechnologies, Offenburg, Germany) or a Viewlux (Perkin-Elmer).

[2] = target: Cyclin-dependent kinase 2/G1/S-specific cyclin-E1 (Homo sapiens, UniProt P24941); test: CDK2/CycE Kinase Assay
Protocol: (§1) For the assay 50 nanoL of a 100 fold concentrated solution of the test compound in DMSO was pipetted into a black low volume 384 well microtiter plate or a black 1536 well microtiter plate (both Greiner Bio-One, Frickenhausen, Germany), 2 microL of a solution of CDK2/CycE in aqueous assay buffer [50 millimol/L Tris/HCl PH 8.0, 10 millimol/L MgCl2, 1.0 millimol/L dithiothreitol, 0.1 millimol/L sodium ortho-vanadate, 0.01% (v/v) Nonidet-P40 (Sigma)] were added and the mixture was incubated for 15 min at 22° C. to allow pre-binding of the test compounds to the enzyme before the start of the kinase reaction. Then the kinase reaction was started by the addition of 3 microL of a solution of adenosine-tri-phosphate (ATP, 3.33 millimol/L=>final conc. in the 5 microL assay volume is 2 millimol/L) and substrate (1.25 micromol/L=>final conc. in the 5 microL assay volume is 0.75 micromol/L) in assay buffer and the resulting mixture was incubated for a reaction time of 25 min at 22° C. The concentration of CDK2/CycE was adjusted depending of the activity of the enzyme lot and was chosen appropriate to have the assay in the linear range, typical concentrations were in the range of 10 ng/ml. The reaction was stopped by the addition of 3 microL of a solution of TR-FRET detection reagents (0.333 micromol/L streptavidine-XL665 [Cisbio Bioassays, Codolet, France] and 1.67 nanomol/L anti-RB (pSer807/pSer811)-antibody from BD Pharmingen [#558389] and 2 nanomol/L LANCE EU-W1024 labeled anti-mouse IgG antibody [Perkin-Elmer, product no. AD0077, as an alternative a Terbium-cryptate-labeled anti-mouse IgG antibody from Cisbio Bioassays can be used]) in an aqueous EDTA-solution (167 millimol/L EDTA, 0.2% (w/v) bovine serum albumin in 100 millimol/L HEPES pH 7.5).The resulting mixture was incubated 1 h at 22° C. to allow the formation of complex between the phosphorylated biotinylated peptide and the detection reagents. Subsequently the amount of phosphorylated substrate was evaluated by measurement of the resonance energy transfer from the Eu-chelate to the streptavidine-XL. Therefore, the fluorescence emissions at 620 nm and 665 nm after excitation at 350 nm was measured in a TR-FRET reader, e.g. a Pherastar (BMG Labtechnologies, Offenburg, Germany) or a Viewlux (Perkin-Elmer).

[3] = target: Cyclin-T1/Cyclin-dependent kinase 9 (Homo sapiens, UniProt P50750); test: CDK9/CycT1 High ATP Kinase Assay
Protocol: as §1, with “into either” for “into”, “CDK9/CycT1” for “CDK2/CycE”, “3.3” for “3.33”, “0.5 microg/ml. […]” for “10 ng/ml. The reaction was stopped by the addition of 3 microL of a solution of TR-FRET detection reagents (0.333 micromol/L streptavidine-XL665 [Cisbio Bioassays, Codolet, France] and 1.67 nanomol/L anti-RB (pSer807/pSer811)-antibody from BD Pharmingen [#558389] and 2 nanomol/L LANCE EU-W1024 labeled anti-mouse IgG antibody [Perkin-Elmer, product no. AD0077, as an alternative a Terbium-cryptate-labeled anti-mouse IgG antibody from Cisbio Bioassays can be used]) in an aqueous EDTA-solution (167 millimol/L EDTA, 0.2% (w/v) bovine serum albumin in 100 millimol/L HEPES pH 7.5).The resulting mixture was incubated 1 h at 22° C. to allow the formation of complex between the phosphorylated biotinylated peptide and the detection reagents.”

Chain of Cyclin-T1/Cyclin-dependent kinase 9 (O60563 whole entry): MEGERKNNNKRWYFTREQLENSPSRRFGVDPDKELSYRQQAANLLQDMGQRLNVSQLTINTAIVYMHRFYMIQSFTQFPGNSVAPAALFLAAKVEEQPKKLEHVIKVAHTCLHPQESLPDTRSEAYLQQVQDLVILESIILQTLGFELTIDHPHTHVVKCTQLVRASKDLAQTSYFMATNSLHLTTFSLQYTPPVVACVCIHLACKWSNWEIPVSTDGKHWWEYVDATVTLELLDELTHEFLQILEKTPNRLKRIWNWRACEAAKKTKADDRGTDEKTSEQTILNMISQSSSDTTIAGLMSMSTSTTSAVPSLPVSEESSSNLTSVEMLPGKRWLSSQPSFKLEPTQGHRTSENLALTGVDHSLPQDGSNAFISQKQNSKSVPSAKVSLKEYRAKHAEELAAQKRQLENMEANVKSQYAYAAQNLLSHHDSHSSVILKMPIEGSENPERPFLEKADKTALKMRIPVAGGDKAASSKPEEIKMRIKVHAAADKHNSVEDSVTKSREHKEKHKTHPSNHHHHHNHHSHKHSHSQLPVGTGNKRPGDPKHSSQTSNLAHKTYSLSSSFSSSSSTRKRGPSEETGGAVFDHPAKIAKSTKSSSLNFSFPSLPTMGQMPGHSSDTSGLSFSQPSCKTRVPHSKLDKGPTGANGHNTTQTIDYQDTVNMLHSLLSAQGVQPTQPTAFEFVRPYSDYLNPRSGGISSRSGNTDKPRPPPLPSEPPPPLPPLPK
Chain of Cyclin-T1/Cyclin-dependent kinase 9 (P50750 whole entry): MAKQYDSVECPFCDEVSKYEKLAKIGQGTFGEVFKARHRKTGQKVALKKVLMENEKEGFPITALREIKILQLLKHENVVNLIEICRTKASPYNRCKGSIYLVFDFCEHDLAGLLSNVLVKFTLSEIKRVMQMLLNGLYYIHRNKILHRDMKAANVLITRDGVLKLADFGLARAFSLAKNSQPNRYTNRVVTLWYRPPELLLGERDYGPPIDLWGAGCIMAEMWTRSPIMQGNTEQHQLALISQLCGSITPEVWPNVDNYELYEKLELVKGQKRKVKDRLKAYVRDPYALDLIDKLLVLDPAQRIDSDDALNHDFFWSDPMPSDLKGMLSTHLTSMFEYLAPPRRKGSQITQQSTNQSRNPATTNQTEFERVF
Chain of Cyclin-K/Cyclin-dependent kinase 12 (O75909 whole entry): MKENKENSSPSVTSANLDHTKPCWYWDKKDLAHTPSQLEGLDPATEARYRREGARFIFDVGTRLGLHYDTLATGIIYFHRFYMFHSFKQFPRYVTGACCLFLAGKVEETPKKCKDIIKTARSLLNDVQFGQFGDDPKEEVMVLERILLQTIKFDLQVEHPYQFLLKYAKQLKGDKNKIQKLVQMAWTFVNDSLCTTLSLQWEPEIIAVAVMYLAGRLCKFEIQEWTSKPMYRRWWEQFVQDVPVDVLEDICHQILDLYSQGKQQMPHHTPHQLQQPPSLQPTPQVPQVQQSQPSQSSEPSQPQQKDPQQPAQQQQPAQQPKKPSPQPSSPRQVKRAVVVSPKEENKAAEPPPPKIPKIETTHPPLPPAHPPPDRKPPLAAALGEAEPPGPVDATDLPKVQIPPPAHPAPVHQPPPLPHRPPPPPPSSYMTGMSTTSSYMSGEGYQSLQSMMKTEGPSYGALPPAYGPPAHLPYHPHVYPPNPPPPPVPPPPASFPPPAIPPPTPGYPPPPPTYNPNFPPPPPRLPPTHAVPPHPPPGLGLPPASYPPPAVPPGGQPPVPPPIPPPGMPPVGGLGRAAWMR
Chain of Cyclin-K/Cyclin-dependent kinase 12 (Q9NYV4 whole entry): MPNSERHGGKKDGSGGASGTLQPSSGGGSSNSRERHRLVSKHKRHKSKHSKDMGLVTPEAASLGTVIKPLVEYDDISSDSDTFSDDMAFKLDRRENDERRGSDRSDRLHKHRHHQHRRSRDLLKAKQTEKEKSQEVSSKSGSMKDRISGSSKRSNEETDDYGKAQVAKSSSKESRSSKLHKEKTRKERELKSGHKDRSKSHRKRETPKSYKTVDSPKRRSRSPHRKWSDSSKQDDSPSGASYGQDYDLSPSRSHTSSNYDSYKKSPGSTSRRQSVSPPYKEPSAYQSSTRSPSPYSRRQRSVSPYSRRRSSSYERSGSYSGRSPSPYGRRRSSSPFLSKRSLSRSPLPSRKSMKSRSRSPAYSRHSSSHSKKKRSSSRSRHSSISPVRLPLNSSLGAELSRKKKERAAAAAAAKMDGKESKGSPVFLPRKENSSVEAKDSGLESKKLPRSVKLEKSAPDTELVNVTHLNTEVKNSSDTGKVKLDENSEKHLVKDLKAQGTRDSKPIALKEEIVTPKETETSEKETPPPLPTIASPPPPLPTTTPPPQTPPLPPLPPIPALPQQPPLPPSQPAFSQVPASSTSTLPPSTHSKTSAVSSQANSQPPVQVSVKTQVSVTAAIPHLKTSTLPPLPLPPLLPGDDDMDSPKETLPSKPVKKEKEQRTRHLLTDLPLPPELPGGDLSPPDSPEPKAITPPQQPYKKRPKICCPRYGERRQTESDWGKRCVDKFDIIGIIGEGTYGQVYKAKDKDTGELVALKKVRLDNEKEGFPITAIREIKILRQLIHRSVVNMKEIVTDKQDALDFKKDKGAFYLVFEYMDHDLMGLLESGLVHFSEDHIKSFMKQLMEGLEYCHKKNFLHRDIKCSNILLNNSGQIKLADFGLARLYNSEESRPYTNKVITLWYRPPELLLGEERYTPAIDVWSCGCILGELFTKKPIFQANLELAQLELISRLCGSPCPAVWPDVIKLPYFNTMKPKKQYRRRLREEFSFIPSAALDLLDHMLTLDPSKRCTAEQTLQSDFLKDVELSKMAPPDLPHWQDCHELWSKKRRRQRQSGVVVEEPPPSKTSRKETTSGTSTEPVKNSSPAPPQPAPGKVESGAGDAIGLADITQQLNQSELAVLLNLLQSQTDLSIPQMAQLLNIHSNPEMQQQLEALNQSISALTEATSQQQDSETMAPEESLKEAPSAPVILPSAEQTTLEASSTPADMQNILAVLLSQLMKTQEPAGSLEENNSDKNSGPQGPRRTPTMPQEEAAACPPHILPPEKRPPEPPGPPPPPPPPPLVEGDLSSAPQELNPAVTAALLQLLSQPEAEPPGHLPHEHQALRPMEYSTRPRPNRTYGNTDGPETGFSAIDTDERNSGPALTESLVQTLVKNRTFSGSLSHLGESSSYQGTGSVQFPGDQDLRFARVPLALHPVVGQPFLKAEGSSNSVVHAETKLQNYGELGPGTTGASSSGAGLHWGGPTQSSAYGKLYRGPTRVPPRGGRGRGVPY

Structure (SMILES): FC(F)(F)Oc1ccc(-c2nnc(CNc3nc(N4CCOCC4)nc4c(C(F)(F)F)cnn34)[nH]2)cn1 [US20250066370, Example 17]
- IC50 [1]: 0.00596 µM
- IC50 [2]: 6.72 µM

Structure (SMILES): COc1ccc(-c2cnc(CNc3nc(N4CCOCC4)nn4c(C(F)(F)F)cnc34)[nH]2)cc1 [US20250066370, Example 13]
- IC50 [1]: 0.0123 µM
- IC50 [3]: 2.78 µM
- IC50 [2]: 16.3 µM

Structure (SMILES): COc1ccc(-c2nnc(CNc3nc(N4CCOCC4)nn4c(C(F)(F)F)cnc34)[nH]2)cn1 [US20250066370, Example 18]
- IC50 [1]: 0.0416 µM
- IC50 [3]: 0.34 µM
- IC50 [2]: > 5.71 µM

Structure (SMILES): FC(F)(F)c1ccc(-c2cnc(CNc3nc(N4CCOCC4)nc4c(C(F)(F)F)cnn34)[nH]2)cn1 [US20250066370, Example 24]
- IC50 [1]: 0.0151 µM
- IC50 [3]: 3.56 µM
- IC50 [2]: 7.82 µM

Structure (SMILES): FC(F)(F)c1ccc(-c2nnc(CNc3nc(N4CCOCC4)nc4c(C(F)(F)F)cnn34)[nH]2)cn1 [US20250066370, Example 16]
- IC50 [1]: 0.0791 µM
- IC50 [2]: 4.05 µM
